Experimental findings from article PMC9554092, “Self-assembled peptide-paclitaxel nanoparticles for enhancing therapeutic efficacy in colorectal cancer” (Frontiers in Bioengineering and Biotechnology, 2022) are described below.

Series [1] is described as follows: Systemic toxicity in the PDX model (body weight, H&E of major organs). It is filed as in vivo. The following applies: PDX mice. The method, then: (§1) The therapeutic efficacy of was evaluated in PDX mice model. When the tumor volume reached about 100 mm3, mice were randomly assigned into four groups (six mice per group) and intravenously administered with DMSO, free PTX, Rev-PTX NPs and LPK-PTX NPs respectively at an equivalent dose of 0.8 mg/kg PTX every 3 days. Total mice body weights and tumor sizes were recorded every 3 days. At the end of the observation, tumors and major organs including heart, liver, spleen, lung, colon and kidney were isolated, […] and subjected to hematoxylin and eosin (H&E) and Ki-67 staining using standard protocols for histopathological analysis.

Series [2] concerns colorectal cancer patient-derived xenografts (PDX). Put plainly: In vivo therapeutic efficacy in CRC patient-derived xenograft (PDX) model. The following applies: CRC PDX mice. The method, then:
as §1
Background: Xenograft models place foreign cells or tissue in a host animal.

For the next series, the system named is HCT116 cells. Put plainly: Cell apoptosis, Annexin V-Alexa Fluor488/PI flow cytometry. In kind it is cell-based, human. The following applies: HCT116, PTX concentration 5 μg/ml, 48 h, representative result. The procedure:
HCT116 cells were seeded in six-well plates at a density of 1 × 10^4 cells per well and incubated at 37°C until a confluence of 80%. The cells were treated with PTX, Rev-PTX NPs, LPK-PTX NPs at normalized PTX concentration of 5 μg/ml at 37°C for 48 h. Then the cells were trypsinzed, washed, and stained with Annexin V-Alexa Fluor488/PI according to manufacturer’s protocol (Life Technologies, United States). The cell apoptosis was monitored by flow cytometry (BD, CA, United States) and the apoptotic percentage of three independent experiments was analyzed.
For orientation: In flow cytometry, cells or beads pass a laser one at a time.

For `CC(=O)O[C@H]1C(=O)[C@@]2(C)[C@H]([C@H](OC(=O)c3ccccc3)[C@]3(O)C[C@H](OC(=O)[C@H](O)[C@@H](NC(=O)c4ccccc4)c4ccccc4)C(C)=C1C3(C)C)[C@]1(OC(C)=O)CO[C@@H]1C[C@@H]2O` [PTX, Paclitaxel], the “colon histology (HE)” value in series [1] is “severe crypt destruction”. For the same compound, the “HE-stained sections of colon, lung and liver” value in series [1] (0.8 mg/kg PTX equivalent i.v. every 3 days) was “serious damages”. The “Ki-67 staining of tumor tissue” value in series [2] is on record as “numerous Ki-67-positive cells”. For the same compound, the “early plus late apoptosis (Q3 + Q2)” value with HCT116 cells is reported as 44.8%.
